In patent US20060073121A1, “Spray formulation for pungency enhancement in Capsicum” (priority 2004, published 2006):

Tested on: Capsicum frutescens Mill
Assay: Spray of abiotic elicitors to flowers of field-grown plants; HPLC of phenyl propanoid intermediates and capsaicinoids in harvested fruits
Assay type: in vivo
Text: The seedlings of Capsicum frutescens Mill were raised in soil bed. The seeds of C. frutescens were collected from wild from BR Hills, […]. The 2 months old seedling plants were transplanted to the soil and grown under controlled conditions to avoid cross-pollination after the onset of flowering. The plants were established well 2 months after transplantation and started to flower by 90 days with proper agronomic practices with regard to irrigation, fertilizer application, weeding and care from major pests and diseases. The abiotic elicitor (Methyl Jasmonate) was purchased from Duchefa Pvt.LTD. Methyl Jasmonate stock solution was prepared and later used at different concentrations (1 mM, 2.5 mM and 5 mM) for spraying to the whole plant containing flowers, completely opened flowers, and braches containing flowers. The flowers of C. frutescens were sprayed with water, which was taken as control. […] The extracted samples were centrifuged at 4000 rpm for 10 minutes. The samples were subjected to High Performance Liquid Chromatography for quantification of phenyl proponoid intermediates and major Capsaicinoids. […] The detection was at 236 nm and flow rate was maintained at 1 ml/min. […] The reagent used was of HPLC grade. The intermediates of phenyl proponoid pathway (Phenylalanine, Cinnamic acid, Coumaric acid, Caffeic acid, Ferulic acid and Vanillylamine) and two major Capsaicinoids (Capsaicin and Dihydrocapsaicin) were purchased from Sigma Co. […] Standard deviation of samples was calculated according to Tukey's method. The seedlings of Capsicum frutescens Mill were raised in soil bed. The seeds of C. frutescens were collected from BR. Hills, […]. The 2 months old seedling plants were transplanted to the soil and grown under controlled conditions to avoid cross-pollination after the onset of flowering. The plants were established well two months after transplantation and started to flower by 90 days with proper agronomic practices with regard to irrigation, fertilizer application, weeding and care from major pests and diseases. […] USA. […] The flowers of C. frutescens were sprayed with water, which was taken as control. […] The extracted samples were centrifuged at 4000 rpm for 10 minutes. The samples were subjected to High Performance Liquid Chromatography for quantification of phenyl proponoid intermediates and major Capsaicinoids. […] The detection was at 236nm and flow rate was maintained at 1 ml/min. […] The reagent used was of HPLC grade. The intermediates of phenyl propanoid pathway (Phenylalanine, Cinnamic acid, Coumaric acid, Caffeic acid, Ferulic acid and Vanillylamine) and two major Capsaicinoids (Capsaicin and Dihydrocapsaicin) were purchased from Sigma Co. […] Standard deviation of samples was calculated according to Tukey's method.

[1] = fruits 25 days after anthesis, 1 mM sprayed
[2] = fruits 25 days after anthesis, 2.5 mM sprayed
[3] = fruits 25 days after anthesis, 5 mM sprayed
[4] = fruits 30 days after anthesis, 1 mM sprayed
[5] = fruits 30 days after anthesis, 2.5 mM sprayed
[6] = fruits 30 days after anthesis, 5 mM sprayed
[7] = fruits 35 days after anthesis, 1 mM sprayed
[8] = fruits 35 days after anthesis, 2.5 mM sprayed
[9] = fruits 35 days after anthesis, 5 mM sprayed
[10] = fruits 40 days after anthesis, 1 mM sprayed
[11] = fruits 40 days after anthesis, 2.5 mM sprayed
[12] = fruits 40 days after anthesis, 5 mM sprayed

In the case of CC/C=C\CC1C(=O)CCC1CC(=O)OC (centres unmarked) [Methyl Jasmonate], the “Caffeic Acid level” value [1] is reported as 3 ± 0.9 µM, the Capsaicin level [1] is reported as 17 ± 1.8 µM and the “Cinnamic Acid level” value [1] is reported as 10 ± 1.0 µM. The “Coumaric Acid level” value [1] was 44 ± 3.2 µM, the Dihydrocapsaicin level [1] was 5 ± 0.8 µM and the “Ferulic Acid level” value [1] was 33 ± 1.9 µM. For the same compound, the Phenylalanine level [1] was 388 ± 8.2 µM, the Vanillylamine level [1] was 49 ± 3.4 µM and the “Caffeic Acid level” value [2] was 3 ± 0.8 µM. The Capsaicin level [2] was 18 ± 1.2 µM, the “Cinnamic Acid level” value [2] was 11 ± 0.8 µM and the “Coumaric Acid level” value [2] was 45 ± 3.8 µM. The Dihydrocapsaicin level [2] was 6 ± 0.5 µM, the “Ferulic Acid level” value [2] was 49 ± 2.5 µM and the Phenylalanine level [2] was 424 ± 9.2 µM. The Vanillylamine level [2] was 63 ± 4.5 µM, the “Caffeic Acid level” value [3] was 3 ± 0.6 µM and the Capsaicin level [3] was 16 ± 1.4 µM. The “Cinnamic Acid level” value [3] was 9 ± 0.8 µM, the “Coumaric Acid level” value [3] was 42 ± 3.9 µM and the Dihydrocapsaicin level [3] was 7 ± 0.8 µM. For the same compound, the “Ferulic Acid level” value [3] was 48 ± 3.4 µM, the Phenylalanine level [3] was 391 ± 10.0 µM and the Vanillylamine level [3] was 42 ± 2.9 µM. For the same compound, the “Caffeic Acid level” value [4] was 4 ± 1.1 µM, the Capsaicin level [4] was 41 ± 3.5 µM and the “Cinnamic Acid level” value [4] was 12 ± 0.9 µM. The “Coumaric Acid level” value [4] was 38 ± 3.4 µM, the Dihydrocapsaicin level [4] was 13 ± 1.0 µM and the “Ferulic Acid level” value [4] was 68 ± 5.4 µM. For the same compound, the Phenylalanine level [4] was 563 ± 12.2 µM, the Vanillylamine level [4] was 61 ± 5.4 µM and the “Caffeic Acid level” value [5] was 12 ± 1.2 µM. The Capsaicin level [5] was 48 ± 3.6 µM, the “Cinnamic Acid level” value [5] was 35 ± 2.1 µM and the “Coumaric Acid level” value [5] was 47 ± 4.2 µM. The Dihydrocapsaicin level [5] was 14 ± 0.9 µM, the “Ferulic Acid level” value [5] was 80 ± 4.5 µM and the Phenylalanine level [5] was 649 ± 8.7 µM. The Vanillylamine level [5] was 96 ± 6.9 µM, the “Caffeic Acid level” value [6] was 10 ± 0.9 µM and the Capsaicin level [6] was 48 ± 6.8 µM. The “Cinnamic Acid level” value [6] was 27 ± 1.8 µM, the “Coumaric Acid level” value [6] was 45 ± 3.8 µM and the Dihydrocapsaicin level [6] was 13 ± 0.7 µM. For the same compound, the “Ferulic Acid level” value [6] was 73 ± 4.5 µM, the Phenylalanine level [6] was 627 ± 7.4 µM and the Vanillylamine level [6] was 58 ± 5.1 µM. For the same compound, the “Caffeic Acid level” value [7] was 12 ± 1.2 µM, the Capsaicin level [7] was 36 ± 3.8 µM and the “Cinnamic Acid level” value [7] was 23 ± 1.5 µM. For the same compound, the “Coumaric Acid level” value [7] was 44 ± 4.2 µM, the Dihydrocapsaicin level [7] was 15 ± 1.2 µM and the “Ferulic Acid level” value [7] was 122 ± 8 µM. The Phenylalanine level [7] was 879 ± 5.9 µM, the Vanillylamine level [7] was 111 ± 10.8 µM and the “Caffeic Acid level” value [8] was 37 ± 3.2 µM. The “Cinnamic Acid level” value [8] was 68 ± 4.5 µM, the “Coumaric Acid level” value [8] was 84 ± 4.1 µM and the Dihydrocapsaicin level [8] was 19 ± 1.3 µM. For the same compound, the “Ferulic Acid level” value [8] was 150 ± 8 µM, the Phenylalanine level [8] was 1052 ± 11 µM and the Vanillylamine level [8] was 107 ± 10.2 µM. The “Caffeic Acid level” value [9] was 20 ± 1.2 µM, the Capsaicin level [9] was 35 ± 2.9 µM and the “Cinnamic Acid level” value [9] was 36 ± 3.2 µM. The “Coumaric Acid level” value [9] was 59 ± 3.8 µM, the Dihydrocapsaicin level [9] was 12 ± 1.0 µM and the “Ferulic Acid level” value [9] was 121 ± 12 µM. The Phenylalanine level [9] was 921 ± 8.9 µM, the Vanillylamine level [9] was 73 ± 7.1 µM and the “Caffeic Acid level” value [10] was 9 ± 0.8 µM. The Capsaicin level [10] was 33 ± 2.4 µM, the “Cinnamic Acid level” value [10] was 14 ± 1.2 µM and the “Coumaric Acid level” value [10] was 39 ± 1.9 µM. The Dihydrocapsaicin level [10] was 15 ± 1.2 µM, the “Ferulic Acid level” value [10] was 107 ± 11 µM and the Phenylalanine level [10] was 516 ± 8.4 µM. The Vanillylamine level [10] was 78 ± 6.8 µM, the “Caffeic Acid level” value [11] was 15 ± 1.2 µM and the Capsaicin level [11] was 42 ± 3.2 µM. For the same compound, the “Cinnamic Acid level” value [11] was 23 ± 1.9 µM, the “Coumaric Acid level” value [11] was 73 ± 2.4 µM and the Dihydrocapsaicin level [11] was 18 ± 1.4 µM. For the same compound, the “Ferulic Acid level” value [11] was 114 ± 12 µM, the Phenylalanine level [11] was 584 ± 9.2 µM and the Vanillylamine level [11] was 98 ± 5.8 µM. The “Caffeic Acid level” value [12] was 13 ± 1.3 µM, the Capsaicin level [12] was 28 ± 3.8 µM and the “Cinnamic Acid level” value [12] was 20 ± 1.5 µM. The “Coumaric Acid level” value [12] was 44 ± 4.1 µM, the Dihydrocapsaicin level [12] was 11 ± 1.3 µM and the “Ferulic Acid level” value [12] was 67 ± 4.5 µM. For the same compound, the Phenylalanine level [12] was 547 ± 7.4 µM and the Vanillylamine level [12] was 61 ± 5.1 µM.

For O=C([O-])c1ccccc1O.[Na+] [Salicylic Acid sodium salt, Salicylic acid sodium salt], the “Caffeic Acid level” value [1] was 21 ± 1.0 µM, the Capsaicin level [1] was 16 ± 08 µM and the “Cinnamic Acid level” value [1] was 3.4 ± 0.9 µM. For the same compound, the “Coumaric Acid level” value [1] was 12.0 ± 1.2 µM, the Dihydrocapsaicin level [1] was 5 ± 0.7 µM and the “Ferulic Acid level” value [1] was 31 ± 1.2 µM. For the same compound, the Phenylalanine level [1] was 378 ± 8.2 µM, the Vanillylamine level [1] was 48 ± 1.4 µM and the “Caffeic Acid level” value [2] was 25 ± 1.1 µM. For the same compound, the Capsaicin level [2] was 17 ± 1.1 µM, the “Cinnamic Acid level” value [2] was 3.9 ± 0.7 µM and the “Coumaric Acid level” value [2] was 15 ± 1.4 µM. The Dihydrocapsaicin level [2] was 5.5 ± 0.6 µM, the “Ferulic Acid level” value [2] was 32 ± 1.4 µM and the Phenylalanine level [2] was 389 ± 9.2 µM. For the same compound, the Vanillylamine level [2] was 49 ± 1.8 µM, the “Caffeic Acid level” value [3] was 28 ± 1.2 µM and the Capsaicin level [3] was 16 ± 1.1 µM. For the same compound, the “Cinnamic Acid level” value [3] was 3.5 ± 0.6 µM, the “Coumaric Acid level” value [3] was 14 ± 1.2 µM and the Dihydrocapsaicin level [3] was 6 ± 0.7 µM. For the same compound, the “Ferulic Acid level” value [3] was 34 ± 1.9 µM, the Phenylalanine level [3] was 379 ± 10.0 µM and the Vanillylamine level [3] was 47 ± 2.1 µM. The “Caffeic Acid level” value [4] was 28 ± 1.0 µM, the Capsaicin level [4] was 35 ± 2.4 µM and the “Cinnamic Acid level” value [4] was 4.1 ± 1.1 µM. For the same compound, the “Coumaric Acid level” value [4] was 12 ± 1.1 µM, the Dihydrocapsaicin level [4] was 11 ± 1.1 µM and the “Ferulic Acid level” value [4] was 35 ± 4.1 µM. For the same compound, the Phenylalanine level [4] was 514 ± 12.2 µM, the Vanillylamine level [4] was 60 ± 1.9 µM and the “Caffeic Acid level” value [5] was 30 ± 1.5 µM. The Capsaicin level [5] was 44 ± 1.1 µM, the “Cinnamic Acid level” value [5] was 4.9 ± 1.5 µM and the “Coumaric Acid level” value [5] was 18 ± 1.2 µM. The Dihydrocapsaicin level [5] was 12 ± 0.1 µM, the “Ferulic Acid level” value [5] was 35 ± 3.9 µM and the Phenylalanine level [5] was 519 ± 8.7 µM. The Vanillylamine level [5] was 67 ± 2.1 µM, the “Caffeic Acid level” value [6] was 32 ± 1.1 µM and the Capsaicin level [6] was 42 ± 2.8 µM. For the same compound, the “Cinnamic Acid level” value [6] was 4.5 ± 1.1 µM, the “Coumaric Acid level” value [6] was 15 ± 1.2 µM and the Dihydrocapsaicin level [6] was 10 ± 0.6 µM. The “Ferulic Acid level” value [6] was 38 ± 3.4 µM, the Phenylalanine level [6] was 528 ± 7.4 µM and the Vanillylamine level [6] was 65 ± 4.2 µM. The “Caffeic Acid level” value [7] was 29 ± 1.0 µM, the Capsaicin level [7] was 38 ± 2.8 µM and the “Cinnamic Acid level” value [7] was 18 ± 1.0 µM. The “Coumaric Acid level” value [7] was 24 ± 1.2 µM, the Dihydrocapsaicin level [7] was 15 ± 1.0 µM and the “Ferulic Acid level” value [7] was 64 ± 5 µM. The Phenylalanine level [7] was 778 ± 5.9 µM, the Vanillylamine level [7] was 68 ± 1.9 µM and the “Caffeic Acid level” value [8] was 42 ± 1.1 µM. The “Cinnamic Acid level” value [8] was 25 ± 1.1 µM, the “Coumaric Acid level” value [8] was 30 ± 1.5 µM and the Dihydrocapsaicin level [8] was 16 ± 1.0 µM. For the same compound, the “Ferulic Acid level” value [8] was 69 ± 6.8 µM, the Phenylalanine level [8] was 789 ± 11 µM and the Vanillylamine level [8] was 77 ± 2.8 µM. For the same compound, the Capsaicin level (fruits 35 days after anthesis, 2.5 mM sprayed, sodium salt) was 39 ± 2.8 µM, the “Caffeic Acid level” value [9] was 32 ± 1.0 µM and the Capsaicin level [9] was 36 ± 2.1 µM. For the same compound, the “Cinnamic Acid level” value [9] was 24 ± 1.1 µM, the “Coumaric Acid level” value [9] was 21 ± 1.1 µM and the Dihydrocapsaicin level [9] was 15 ± 0.9 µM. For the same compound, the “Ferulic Acid level” value [9] was 65 ± 4.5 µM, the Phenylalanine level [9] was 891 ± 8.9 µM and the Vanillylamine level [9] was 73 ± 3.6 µM. The “Caffeic Acid level” value [10] was 29 ± 1.1 µM, the Capsaicin level [10] was 31 ± 2.1 µM and the “Cinnamic Acid level” value [10] was 15 ± 1.0 µM. For the same compound, the “Coumaric Acid level” value [10] was 21 ± 1.1 µM, the Dihydrocapsaicin level [10] was 14 ± 1.0 µM and the “Ferulic Acid level” value [10] was 62 ± 5 µM. The Phenylalanine level [10] was 532 ± 8.4 µM, the Vanillylamine level [10] was 64 ± 5.8 µM and the “Caffeic Acid level” value [11] was 35 ± 1.0 µM. The Capsaicin level [11] was 34 ± 2.8 µM, the “Cinnamic Acid level” value [11] was 23 ± 1.1 µM and the “Coumaric Acid level” value [11] was 29 ± 1.4 µM. The Dihydrocapsaicin level [11] was 15 ± 1.0 µM, the “Ferulic Acid level” value [11] was 65 ± 6 µM and the Phenylalanine level [11] was 549 ± 9.2 µM. The Vanillylamine level [11] was 68 ± 4.8 µM, the “Caffeic Acid level” value [12] was 34 ± 1.1 µM and the Capsaicin level [12] was 38 ± 3.4 µM. For the same compound, the “Cinnamic Acid level” value [12] was 20 ± 1.0 µM, the “Coumaric Acid level” value [12] was 24 ± 1.5 µM and the Dihydrocapsaicin level [12] was 14 ± 1.1 µM. The “Ferulic Acid level” value [12] was 67 ± 6 µM, the Phenylalanine level [12] was 547 ± 7.4 µM and the Vanillylamine level [12] was 65 ± 6.1 µM.
